As a reminder, the Ki is the dissociation constant of the complex between target and ligand, obtained from inhibition or displacement. A high value points to lower affinity.

The target in the experiment is T1, H3 receptors (Cavia porcellus, UniProt Q9JI35).
T1 construct: The source of the H3 receptors in this experiment was guinea pig brain; from tissue; host or cells: guinea pig brain membranes
Kind of experiment: H3-Receptor Binding Assay. The note with it: guinea pig brain membranes; 3 nM [3H]R-α-methyl histamine or 3 nM [3H]Nα-methyl histamine; 30° C., 30 min. The protocol: Using the appropriate indolene starting materials in a similar procedure, the following compounds were prepared: [drawing 145] General Procedure for H3-Receptor Binding Assay
The source of the H3 receptors in this experiment was guinea pig brain. The animals weighed 400-600 g. The brain tissue was homogenized with a solution of 50 mM Tris, pH 7.5. The final concentration of tissue in the homogenization buffer was 10% w/v. The homogenates were centrifuged at 1,000×g for 10 min. in order to remove clumps of tissue and debris. The resulting supernatants were then centrifuged at 50,000×g for 20 min. in order to sediment the membranes, which were next washed three times in homogenization buffer (50,000×g for 20 min. each). The membranes were frozen and stored at −70° C. until needed.
All compounds to be tested were dissolved in DMSO and then diluted into the binding buffer (50 mM Tris, pH 7.5) such that the final concentration was 2 μg/ml with 0.1% DMSO. Membranes were then added (400 μg of protein) to the reaction tubes. The reaction was started by the addition of 3 nM [^3H]R-α-methyl histamine (8.8 Ci/mmol) or 3 nM [^3H]N^α-methyl histamine (80 Ci/mmol) and continued under incubation at 30° C. for 30 min. Bound ligand was separated from unbound ligand by filtration, and the amount of radioactive ligand bound to the membranes was quantitated by liquid scintillation spectrometry. […]

T1 sequence (Q9JI35 whole entry): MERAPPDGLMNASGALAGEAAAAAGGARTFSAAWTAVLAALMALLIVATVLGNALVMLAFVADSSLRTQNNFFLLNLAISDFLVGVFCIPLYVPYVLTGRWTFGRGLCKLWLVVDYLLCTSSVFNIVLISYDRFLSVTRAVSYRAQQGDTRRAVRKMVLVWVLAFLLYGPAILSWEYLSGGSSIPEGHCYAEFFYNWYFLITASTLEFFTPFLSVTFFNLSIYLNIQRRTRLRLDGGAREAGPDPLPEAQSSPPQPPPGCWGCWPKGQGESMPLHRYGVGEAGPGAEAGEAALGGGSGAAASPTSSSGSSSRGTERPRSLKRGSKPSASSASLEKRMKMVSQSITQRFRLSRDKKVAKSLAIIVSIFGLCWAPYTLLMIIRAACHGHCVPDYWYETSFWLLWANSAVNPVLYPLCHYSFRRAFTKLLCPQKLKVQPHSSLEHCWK

Compound `Nc1cc(CN2CCC(C(=O)N3CCC(c4c(-c5ccccn5)n(Cc5ccccn5)c5ccccc45)CC3)CC2)ccn1` [Example 5] registered a Ki of 1.5 nM.
